Results taken from PMC11403616, “Arcopilins: A New Family of Staphylococcus aureus Biofilm Disruptors from the Soil Fungus Arcopilus navicularis” (Journal of Medicinal Chemistry, 2024).
In brackets after ≈: the same amount, converted by molar mass. Entries after “also recorded” stand apart in the source; their conditions may differ. Where two headings read alike, the source gives them in different places.

Experiments:
[1] = tested on: preformed biofilms of S. aureus DSM 1104; assay: Disruption of preformed biofilms, crystal violet assay; format: cell-based, Staphylococcus aureus
Experimental: Therefore, Acp A–G were evaluated against preformed biofilms of S. aureus using crystal violet staining.[47]
Cultures of S. aureus DSM 1104 were prepared by inoculating 1 mL aliquots from a frozen stock (−20 °C) into 25 mL of CASO medium and incubating them overnight at 37 °C with shaking at 130 rpm.
The crystal violet assay was performed according to a previously reported procedure.[47] Arcopilins A–G were tested in serial dilutions (250–2 μg/mL), with methanol and microporenic acid A (MAA) as negative and positive controls, respectively. Statistical differences between samples and the controls were determined using a two-tailed Student’s t test, with statistical significance defined as p < 0.01. Statistical analysis was carried out using GraphPad Prism 9 (GraphPad Software, San Diego, CA).[58]

M. hiemalis DSM 2656 = assay: MIC against fungi (antimicrobial assay); format: cell-based, Mucor hiemalis; conditions: for MIC: Mucor hiemalis, DSM2656, DSM 2656, – = no activity observed under test conditions; for MIC M. hiemalis: supplement CSV, decimal comma, unit not given, in µg/mL
Experimental: (§1) The antimicrobial activities of compounds 1–7 (Acp A–G) were assessed against different bacterial and fungal strains in addition to their cytotoxic effects on two mammalian cell lines. The tested microorganisms comprised a diverse array of clinically relevant pathogens, encompassing sensitive indicator strains. Among the Gram-positive bacteria were Bacillus subtilis, Staphylococcus aureus, and Mycolicibacterium smegmatis. Gram-negative bacteria included Acinetobacter baumannii, Chromobacterium violaceum, Escherichia coli, and Pseudomonas aeruginosa. Additionally, filamentous fungi such as Mucor hiemalis and yeasts including Candida albicans, Wickerhamomyces anomalus, Rhodotorula glutinis, and Schizosaccharomyces pombe were included. Generally, all compounds presented similar biological properties, summarized in weak or no activity against fungal pathogens as well as weak to moderate inhibition of Gram-positive bacteria (Table 2).
(§2) The antimicrobial and cytotoxic assays were performed according to the methods reported previously.[57]

L929 (ACC 2) = assay: Cytotoxicity against mammalian cell lines; format: cell-based; conditions: Mus musculus
Experimental: as §1, §2

KB-3-1 (ACC 158) = assay: Cytotoxicity against mammalian cell lines; format: cell-based; conditions: Homo sapiens
Experimental: as §1, §2

M. smegmatis ATCC 700084 = assay: MIC against bacteria (antimicrobial assay); format: cell-based, Mycolicibacterium smegmatis
Experimental: as §1, §2

B. subtilis DSM 10 = assay: MIC against bacteria (antimicrobial assay); format: cell-based, Bacillus subtilis; conditions: for MIC: Bacillus subtilis, DSM10, DSM 10, – = no activity observed under test conditions; for MIC B. subtilis: supplement CSV, decimal comma, unit not given, in µg/mL
Experimental: as §1, §2

two mammalian cell lines = assay: Cytotoxic effects on two mammalian cell lines (summary); format: cell-based; conditions: KB-3-1 and L929
Experimental: as §1, §2

[2] = tested on: different bacterial and fungal strains; assay: Antimicrobial activities against bacterial and fungal strains (whole panel); format: cell-based; conditions: whole panel of bacteria and fungi
Experimental: as §1, §2

S. aureus DSM 346 = assay: MIC against bacteria (antimicrobial assay); format: cell-based, Staphylococcus aureus; conditions: for MIC: Staphylococcus aureus, DSM346, DSM 346, – = no activity observed under test conditions; for MIC S. aureus: supplement CSV, decimal comma, unit not given, in µg/mL
Experimental: as §1, §2

[3] = tested on: preformed biofilms of S. aureus DSM 1104; assay: CFU count analysis, synergistic effects on preformed biofilms; format: cell-based, Staphylococcus aureus; conditions: Acp A 7.8–3.9 μg/mL, GM 7.8–2 μg/mL, Vac 15.6–3.9 μg/mL
Experimental: The seed culture of S. aureus DSM 1104 was prepared as previously described, and the OD600 was adjusted to match the turbidity of a 0.001 McFarland standard. Then, 150 μL of bacterial solution in CASO with 4% glucose broth was incubated in 96-well tissue plates (TPP tissue culture ref no. 92196, Switzerland) for 24 h at 150 rpm. […] Methanol (2.5%) was used as the solvent control. The plates were incubated for a further 24 h at 37 °C. Colony-forming unit (CFU) count analysis of arcopilin A, antibiotics (vancomycin and gentamicin), and their combinations was performed as previously described.[58] Cells were suspended in the well 50 times. Dilution series in 1 to 10 steps (20 μL in 200 μL) were prepared down to a final dilution level of 10^–6, and 100 μL of this last dilution was platted on LB agar plates using 3 mm small glass beads (5 to 10, Omnilab, Germany) to homogeneously spread the liquid. Individual colonies on agar plates were counted after incubation at 30 °C for 24 and 48 h.[60] Afterward, CFUs were calculated by considering the dilution factors. Error bars indicate the SD of duplicate with two repeats.

[4] = tested on: planktonic cells of S. aureus DSM 1104; assay: Checkerboard broth dilution assay (FICI); format: cell-based, Staphylococcus aureus
Description: After assessing the effects of Acp A on the pathogen S. aureus, we delved deeper into the interaction of Acp A with established antibiotics (GM and Vac). This exploration focused on both planktonic cells and preformed biofilms of S. aureus. Consequently, we used a checkerboard assay to determine the fractional inhibitory concentration index (FICI) for combinations involving Acp A, GM, or Vac based on both their MIC values in combination.[49]
The interaction between arcopilin A, vancomycin, and gentamicin against S. aureus DSM 1104 was evaluated using a checkerboard broth dilution method to determine the fractional inhibitory concentration indices (FICIs), calculated as FIC = MIC of drug A in combination/MIC of drug A alone + MIC of drug B in combination/MIC of drug B alone.[59] The FICIs were interpreted as synergistic (FICI ≤ 0.5). For this assay, a seed culture was prepared as previously described to inoculate fresh CASO with 4% glucose broth to match the turbidity of a 0.1 McFarland standard suspension. Then, 100 μL of bacterial suspension was distributed in 96-well nontissue microtiter plates (TPP nontissue culture ref no. 92197, Switzerland). Arcopilin A (7.8–2 μg/mL) and antibiotics (vancomycin and gentamicin: 31.3–0.016 μg/mL) were added in increasing concentrations in columns and rows, respectively. The experiments were conducted in duplicate.

human cancer cell lines = conditions: cited from earlier work
S. aureus = conditions: cited from earlier work
[5] = tested on: methicillin-resistant S. aureus (MRSA); conditions: cited from earlier work
[6] = L929, ACC 2, – = no activity observed under test conditions, read-out: IC50 against mammalian cell lines, L929
[7] = KB 3-1, ACC 158, – = no activity observed under test conditions, read-out: IC50 against mammalian cell lines, KB-3-1

## CC[C@H](C)C[C@@H](C)C[C@H](C)C(=O)C1=C(O)/C(=C/c2ccccc2)NC1=O [Acp D, Arcopilin D]
[1]
  lowest concentration with significant dispersal effects: 31.3 µg/mL
M. hiemalis DSM 2656
  MIC: 66.7 µg/mL (≈ 188 µM)
  MIC M. hiemalis: 66,7
L929 (ACC 2); [6]
  IC50: 1700 ng/mL (≈ 4.78 µM)
KB-3-1 (ACC 158); [7]
  IC50: 800 ng/mL (≈ 2.25 µM)
M. smegmatis ATCC 700084; Mycolicibacterium smegmatis, ATCC700084, ATCC 700084, – = no activity observed under test conditions
  MIC: 66.7 µg/mL (≈ 188 µM)
M. smegmatis ATCC 700084; supplement CSV, decimal comma, unit not given, in µg/mL
  MIC M. smegmatis: 66,7
B. subtilis DSM 10
  MIC: 4.2 µg/mL (≈ 11.8 µM)
  MIC B. subtilis: 4,2

## C[C@@H](C[C@H](C)C(=O)C1=C(O)/C(=C/c2ccccc2)NC1=O)C[C@](C)(O)[C@@H](O)C(=O)O [Acp F, Arcopilin F]
Two mammalian cell lines
  cytotoxic properties (in words): weak or no cytotoxic effects
[2]
  antimicrobial activity (in words): did not exhibit any antimicrobial activity

## C[C@H](C[C@@H](C)[C@H](C)O)C[C@H](C)C(=O)C1=C(O)/C(=C/c2ccccc2)NC1=O [Acp B, Arcopilin B]
S. aureus DSM 346
  MIC: 66.7 µg/mL (≈ 180 µM)
  MIC S. aureus: 66,7
Two mammalian cell lines
  cytotoxic properties (in words): weak or no cytotoxic effects
B. subtilis DSM 10
  MIC: 66.7 µg/mL (≈ 180 µM)
  MIC B. subtilis: 66,7

## CN[C@H](CC(C)C)C(=O)N[C@H]1C(=O)N[C@@H](CC(N)=O)C(=O)N[C@H]2C(=O)N[C@H]3C(=O)N[C@H](C(=O)N[C@H](C(=O)O)c4cc(O)cc(O)c4-c4cc3ccc4O)[C@H](O)c3ccc(c(Cl)c3)Oc3cc2cc(c3O[C@@H]2O[C@H](CO)[C@@H](O)[C@H](O)[C@H]2O[C@H]2C[C@](C)(N)[C@H](O)[C@H](C)O2)Oc2ccc(cc2Cl)[C@H]1O [Vac, vancomycin]
[3]
  improvement in the inhibitory effects in combination with Acp A: ~3 fold
[4]; Acp A 3.9 μg/mL, MIC alone versus in combination
  increase of the potency of the antibiotic in combination with Acp A: ≤ 31 fold
[4]; Staphylococcus aureus, DSM1104, read-out: MIC of each single compound (MICs)
  MIC: 2 µg/mL
[4]; combination of Acp A (3.9 μg/mL) with Vac
  MIC in combination (MICc), Acp A and Vac: 0.065 µg/mL

## C[C@H](C[C@@H](C)[C@H](C)OC=O)C[C@H](C)C(=O)C1=C(O)/C(=C/c2ccccc2)NC1=O [Acp C, Arcopilin C]
S. aureus DSM 346
  MIC: 33.3 µg/mL (≈ 83.4 µM)
  MIC S. aureus: 33,3
[1]; at 3.9 μg/mL
  efficacy toward preformed biofilms: 35–45%
[1]; between 7.8 μg/mL and 250 μg/mL
  effectiveness in the dispersal of preformed biofilms: approximately 50%
[1]; tested 250–2 μg/mL
  disrupting effect on preformed biofilms (in words): most promising disrupting effects; also recorded: remarkable effectiveness
M. hiemalis DSM 2656
  MIC: 66.7 µg/mL (≈ 167 µM)
  MIC M. hiemalis: 66,7
L929 (ACC 2); [6]
  IC50: 1400 ng/mL (≈ 3.5 µM)
KB-3-1 (ACC 158); [7]
  IC50: 800 ng/mL (≈ 2 µM)
B. subtilis DSM 10
  MIC: 33.3 µg/mL (≈ 83.4 µM)
  MIC B. subtilis: 33,3

## C/C=C(\C)[C@H]1C(C)=C[C@@]2(C)C[C@@H](C)CC[C@@H]2[C@H]1C(=O)C1=C[C@@](CC(C)C)(OC)NC1=O [myceliothermophin C]
Human cancer cell lines
  antitumor activity against a number of human cancer cell lines: potent antitumor activity

## C/C=C(\C)[C@H]1C(C)=C[C@@]2(C)C[C@@H](C)CC[C@@H]2[C@H]1C(=O)C1=C[C@](CC(C)C)(OC)NC1=O [myceliothermophin D]
Human cancer cell lines
  antitumor activity against a number of human cancer cell lines: potent antitumor activity

## CN(C)[C@@H]1C(O)=C(C(N)=O)C(=O)[C@@]2(O)C(O)=C3C(=O)c4c(O)cccc4[C@@](C)(O)[C@H]3[C@H](O)[C@@H]12 [Oxytetracycline, reference compound]
B. subtilis DSM 10
  MIC: 8.3 µg/mL (≈ 18 µM)

## C/C=C(\C)[C@@H]1C(C)=C[C@]2(C)C[C@H](C)CC[C@H]2[C@@H]1C(=O)C1=C[C@](Cc2ccccc2)(OC)NC1=O [chaetolivacine B]
S. aureus
  antibacterial properties against S. aureus: moderate antibacterial properties
[5]
  antibacterial properties against MRSA: moderate antibacterial properties

## CC[C@H](C)[C@@H]1O[C@H](c2c(O)c(-c3ccccc3)cn(O)c2=O)[C@@H](C)C[C@@H]1C [Acp G, Arcopilin G]
S. aureus DSM 346
  MIC: 16.6 µg/mL (≈ 44.7 µM)
  MIC S. aureus: 16,6
L929 (ACC 2); [6]
  IC50: 0.024 ng/mL (≈ 6.46e-05 µM)
KB-3-1 (ACC 158); [7]
  IC50: 0.2 ng/mL (≈ 0.000538 µM)
Two mammalian cell lines
  cytotoxic properties (in words): most cytotoxic metabolite
B. subtilis DSM 10
  MIC: 8.3 µg/mL (≈ 22.3 µM)
  MIC B. subtilis: 8,3

## myceliothermophin E
Human cancer cell lines
  antitumor activity against a number of human cancer cell lines: potent antitumor activity

## C/C(=C\c1csc(C)n1)[C@@H]1C[C@@H]2O[C@]2(C)CCC[C@H](C)[C@H](O)[C@@H](C)C(=O)C(C)(C)[C@@H](O)CC(=O)O1 [Epothilone B, reference compound]
L929 (ACC 2); L929, read-out: IC50 against mammalian cell lines, L929
  IC50: 0.086 ng/mL (≈ 0.000169 µM)
KB-3-1 (ACC 158); KB 3-1, read-out: IC50 against mammalian cell lines, KB-3-1
  IC50: 0.0086 ng/mL (≈ 1.69e-05 µM)

## C[C@@H](C[C@H](C)C(=O)C1=C(O)/C(=C/c2ccccc2)NC1=O)C[C@](C)(O)C(=O)CO [Acp E, Arcopilin E]
Two mammalian cell lines
  cytotoxic properties (in words): weak or no cytotoxic effects
[2]
  antimicrobial activity (in words): did not exhibit any antimicrobial activity
